According to US20090325959A1 (priority 2008, published 2009):
Where two headings read alike, the source gives them in different places.

Legend:
ROCK1 = biological target: T1, ROCK1 (Homo sapiens, UniProt Q13464); test: Rho kinase inhibition assay (IMAP fluorescence polarization), ROCK1; assay type: biochemical;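 note: kinase reaction run 60 min at room temperature, then phosphorylated substrate captured on IMAP beads for 30 min, with fluorescence polarization read in mP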
T1 construct: purchased Upstate/Chemicon 14-601
Method: (§1) Following the pre-incubation, 10 μM ATP was added to initiate the reaction. After 60 minutes at room temperature, Molecular Devices IMAP™ binding solution was added to bind phosphorylated substrate. After 30 minutes of incubation in the presence of the IMAP™ beads, the fluorescence polarization was read and the ratio was reported as mP. IC50 values for compounds and EC50 values for ATP were calculated using the Prism software from Graphpad.

ROCK2 = biological target: T2, ROCK2 (Homo sapiens, UniProt O75116); test: Rho kinase inhibition assay (IMAP fluorescence polarization), ROCK2; assay type: biochemical;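 note: kinase reaction started with 10 µM ATP and run 60 min at room temperature, then phosphorylated substrate captured on IMAP beads for 30 min and fluorescence polarization read in mP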
T2 construct: purchased Upstate/Chemicon 14-451
Method: as §1

[1] = 10 μM ATP, read-out: ROCK2 Ki, Avg

T1 sequence (Q13464 17-535 limits assumed): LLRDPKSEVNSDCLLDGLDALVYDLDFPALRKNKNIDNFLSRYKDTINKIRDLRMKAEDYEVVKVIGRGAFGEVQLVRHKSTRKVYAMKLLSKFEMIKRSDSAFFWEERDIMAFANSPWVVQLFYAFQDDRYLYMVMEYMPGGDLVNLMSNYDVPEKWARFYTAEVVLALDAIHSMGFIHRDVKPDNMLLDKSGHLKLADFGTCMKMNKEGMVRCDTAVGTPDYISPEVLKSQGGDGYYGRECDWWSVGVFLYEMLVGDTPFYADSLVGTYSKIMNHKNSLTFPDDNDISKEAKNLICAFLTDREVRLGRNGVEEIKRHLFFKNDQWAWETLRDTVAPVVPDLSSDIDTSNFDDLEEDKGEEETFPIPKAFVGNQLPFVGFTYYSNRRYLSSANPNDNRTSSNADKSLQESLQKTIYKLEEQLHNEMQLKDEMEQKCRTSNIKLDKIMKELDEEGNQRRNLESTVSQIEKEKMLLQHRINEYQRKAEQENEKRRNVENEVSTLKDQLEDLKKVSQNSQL
T2 sequence (O75116 11-552 limits assumed): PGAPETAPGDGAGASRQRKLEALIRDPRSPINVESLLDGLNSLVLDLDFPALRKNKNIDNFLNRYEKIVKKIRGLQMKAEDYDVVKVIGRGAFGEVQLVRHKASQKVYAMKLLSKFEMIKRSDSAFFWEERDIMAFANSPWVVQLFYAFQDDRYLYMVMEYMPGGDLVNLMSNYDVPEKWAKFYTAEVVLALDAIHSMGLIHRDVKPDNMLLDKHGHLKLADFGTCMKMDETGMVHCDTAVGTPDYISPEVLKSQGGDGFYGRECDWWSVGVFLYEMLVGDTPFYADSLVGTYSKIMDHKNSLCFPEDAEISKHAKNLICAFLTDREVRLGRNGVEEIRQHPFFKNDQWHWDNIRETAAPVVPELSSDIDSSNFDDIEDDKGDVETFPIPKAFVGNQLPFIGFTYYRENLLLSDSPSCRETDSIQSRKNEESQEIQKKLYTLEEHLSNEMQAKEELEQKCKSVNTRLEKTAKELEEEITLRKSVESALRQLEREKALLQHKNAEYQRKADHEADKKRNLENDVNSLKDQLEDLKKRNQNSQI

Row | Structure (SMILES) | Ki (ROCK1; Avg, 10 μM ATP) | Ki (ROCK2; [1]) | Ki (ROCK2; read-out: ROCK2 Ki, Avg) | Ki (ROCK1; average Ki) | Ki (ROCK2; average Ki, read-out: ROCK2 Ki)
1 | OCCOc1cccc(CN2CCC(Nc3ccc4[nH]ncc4c3)CC2)c1 [Compound 1.130, 2-(3-((4-(1H-indazol-5-ylamino)piperidin-1-yl)methyl)phenoxy)ethanol] | 577 nM | 142 nM | – | – | –
2 | c1cc(CN2CCC[C@@H](Nc3ccc4[nH]ncc4c3)C2)cc(-c2ccco2)c1 [Compound 1.250, (R)-N-(1-(3-(furan-2-yl)benzyl)piperidin-3-yl)-1H-indazol-5-amine] | 247 nM | 45.8 nM | – | – | –
3 | C[C@@H](O)COc1cccc(CN2CCC[C@H](Nc3ccc4[nH]ncc4c3)C2)c1 [Compound 1.118, (R)-1-(3-(((S)-3-(1H-indazol-5-ylamino)piperidin-1-yl)methyl)phenoxy)propan-2-ol] | 462 nM | 81.7 nM | – | – | –
4 | NCc1ccc(CN2CCC[C@@H](Nc3ccc4[nH]ncc4c3)C2)cc1 [Compound 1.188, (R)-N-(1-(4-(aminomethyl)benzyl)piperidin-3-yl)-1H-indazol-5-amine] | – | – | 653 nM | – | –
5 | Cc1ccc(CN2CC[C@@H](Nc3cccc4cnccc34)C2)cc1NS(C)(=O)=O [Compound 2.076] | 8 nM | 2.4 nM | – | 8 nM | 2.4 nM
6 | FC(F)(F)c1cccc(CN2CCC[C@@H](Nc3ccc4[nH]ncc4c3)C2)c1 [Compound 1.190, (R)-N-(1-(3-(trifluoromethyl)benzyl)piperidin-3-yl)-1H-indazol-5-amine] | 326 nM | 71.8 nM | – | – | –
7 | OCCn1ccc2cc(CN3CCC[C@@H](Nc4ccc5[nH]ncc5c4)C3)ccc21 [Compound 1.268, (R)-2-(5-((3-(1H-indazol-5-ylamino)piperidin-1-yl)methyl)-1H-indol-1-yl)ethanol] | 404 nM | 40.7 nM | – | – | –
8 | Clc1ccc(CN2CCC[C@H](Nc3ccc4[nH]ncc4c3)C2)cc1Cl [Compound 1.080, (S)-N-(1-(3,4-dichlorobenzyl)piperidin-3-yl)-1H-indazol-5-amine] | 131 nM | 15.2 nM | – | – | –
9 | CS(=O)(=O)c1ccc(CN2CCC[C@@H](Nc3ccc4[nH]ncc4c3)C2)cc1 [Compound 1.205, (R)-N-(1-(4-(methylsulfonyl)benzyl)piperidin-3-yl)-1H-indazol-5-amine] | 498 nM | 46.4 nM | – | – | –
10 | O=C(COc1cccc(CN2CC[C@@H](Nc3cccc4cnccc34)C2)c1)N1CCOCC1 [Compound 2.043, (R)-2-(3-((3-(isoquinolin-5-ylamino)pyrrolidin-1-yl)methyl)phenoxy)-1-morpholinoethanone] | 49.4 nM | 21.5 nM | – | – | –
11 | OC[C@@H](O)COc1cccc(CN2CCC[C@H](Nc3ccc4[nH]ncc4c3)C2)c1 [Compound 1.117, (R)-3-(3-(((S)-3-(1H-indazol-5-ylamino)piperidin-1-yl)methyl)phenoxy)propane-1,2-diol] | 208 nM | 35.8 nM | – | – | –
12 | Cn1ccnc1CN1CCC[C@H](Nc2ccc3[nH]ncc3c2)C1 [Compound 1.257, (S)-N-(1-((1-methyl-1H-imidazol-2-yl)methyl)piperidin-3-yl)-1H-indazol-5-amine] | 1270 nM | 168 nM | – | – | –
13 | Cc1c(CN2CCC[C@H](Nc3ccc4[nH]ncc4c3)C2)cccc1NS(C)(=O)=O [Compound 1.274, (S)-N-(3-((3-(1H-indazol-5-ylamino)piperidin-1-yl)methyl)-2-methylphenyl)methanesulfonamide] | 223 nM | 10.7 nM | – | – | –
14 | CS(=O)(=O)c1cccc(CN2CCC[C@@H](Nc3ccc4[nH]ncc4c3)C2)c1 [Compound 1.160, (R)-N-(1-(3-(methylsulfonyl)benzyl)piperidin-3-yl)-1H-indazol-5-amine] | 218 nM | 49.4 nM | – | – | –
15 | O=C(O)COc1cccc(CN2CCC[C@@H](Nc3ccc4[nH]ncc4c3)C2)c1 [Compound 1.125, (R)-2-(3-((3-(1H-indazol-5-ylamino)piperidin-1-yl)methyl)phenoxy)acetic acid] | 557 nM | 50.9 nM | – | – | –
16 | NC(=O)COc1cccc(CN2CCC[C@@H](Nc3ccc4[nH]ncc4c3)C2)c1 [Compound 1.098, 2-(3-((3-(1H-indazol-5-ylamino)piperidin-1-yl)methyl)phenoxy)acetamide] | – | 25 nM | – | – | –
17 | c1cc(N[C@@H]2CCN(Cc3ccc4c(c3)OCCO4)C2)c2ccncc2c1 [Compound 2.056, (R)-N-(1-((2,3-dihydrobenzo[b][1,4]dioxin-6-yl)methyl)pyrrolidin-3-yl)isoquinolin-5-amine] | 107 nM | 48.7 nM | – | – | –
18 | O=S(=O)(Nc1cccc(CN2CCC[C@H](Nc3ccc4[nH]ncc4c3)C2)c1)N1CCCCC1 [Compound 1.270, (S)-N-(3-((3-(1H-indazol-5-ylamino)piperidin-1-yl)methyl)phenyl)piperidine-1-sulfonamide] | 130 nM | 9.9 nM | – | 130 nM | 9.9 nM
19 | COc1ccc(CN2CCC[C@H](Nc3cccc4cnccc34)C2)cc1 [Compound 2.053, (S)-N-(1-(4-methoxybenzyl)piperidin-3-yl)isoquinolin-5-amine] | 952 nM | 182 nM | – | – | –
20 | Cc1nc(CN2CC[C@@H](Nc3cccc4cnccc34)C2)c(C)o1 [Compound 2.091, (R)-N-(1-((2,5-dimethyloxazol-4-yl)methyl)pyrrolidin-3-yl)isoquinolin-5-amine] | 776 nM | 237 nM | – | – | –

Row | Structure (SMILES) | Ki (ROCK1; Avg, 10 μM ATP) | Ki (ROCK2; [1]) | Ki (ROCK2; read-out: ROCK2 Ki, Avg) | Ki (ROCK1; average Ki) | Ki (ROCK2; average Ki, read-out: ROCK2 Ki)
21 | OCCn1ccc2cc(CN3CCC[C@H](Nc4ccc5[nH]ncc5c4)C3)ccc21 [Compound 1.269, (S)-2-(5-((3-(1H-indazol-5-ylamino)piperidin-1-yl)methyl)-1H-indol-1-yl)ethanol] | 239 nM | 22.8 nM | – | – | –
22 | COc1c(CN2CC[C@@H](Nc3cccc4cnccc34)C2)cccc1NS(C)(=O)=O [Compound 2.096, (R)-N-(3-((3-(isoquinolin-5-ylamino)pyrrolidin-1-yl)methyl)-2-methoxyphenyl)methanesuifonamide] | 70.2 nM | 9.6 nM | – | 70.2 nM | 9.6 nM
23 | CCSc1ccc(CN2CCC[C@@H](Nc3ccc4[nH]ncc4c3)C2)cc1 [Compound 1.189, (R)-N-(1-(4-(ethylthio)benzyl)piperidin-3-yl)-1H-indazol-5-amine] | 188 nM | 34.3 nM | – | – | –
24 | c1cc(CN2CC[C@@H](Nc3cccc4cnccc34)C2)cc(C2CC2)c1 [Compound 2.020, (R)-N-(1-(3-cyclopropylbenzyl)pyrrolidin-3-yl)isoquinolin-5-amine] | 101 nM | 36.5 nM | – | – | –
25 | CS(=O)(=O)N1CCCc2cc(CN3CCC[C@H](Nc4ccc5[nH]ncc5c4)C3)ccc21 [Compound 1.272, (S)-N-(1-((1-(methylsulfonyl)-1,2,3,4-tetrahydroquinolin-6-yl)methyl)piperidin-3-yl)-1H-indazol-5-amine] | 1820 nM | 194 nM | – | – | –
26 | CC1CNCCN1S(=O)(=O)c1cccc2cnccc12 (centres unmarked) [Compound H7, reference compound] | – | 125 nM | – | – | –
27 | Cc1ccc(CN2CC[C@@H](Nc3cccc4c[n+]([O-])ccc34)C2)cc1OCCO [Compound 2.080, (R)-5-(1-(3-(2-hydroxyethoxy)-4-methylbenzyl)pyrrolidin-3-ylamino)isoquinoline 2-oxide] | 214 nM | 126 nM | – | – | –
28 | NCc1cccc(CN2CCC[C@H](Nc3ccc4[nH]ncc4c3)C2)c1 [Compound 1.184, (S)-N-(1-(3-(aminomethyl)benzyl)piperidin-3-yl)-1H-indazol-5-amine] | 843 nM | 90.9 nM | – | – | –
29 | OCCOc1cc(CN2CC[C@@H](Nc3cccc4cnccc34)C2)ccc1F [Compound 2.068, (R)-2-(2-fluoro-5-((3-(isoquinolin-5-ylamino)pyrrolidin-1-yl)methyl)phenoxy)ethanol] | 8 nM | 5.8 nM | – | 8 nM | 5.8 nM
30 | Cc1ccc(CN2CC[C@@H](Nc3ccc4[nH]ncc4c3)C2)cc1OCCO [Compound 1.276] | 64.2 nM | 12.3 nM | – | – | –
31 | CC(=O)NCc1cccc(CN2CC[C@@H](Nc3cccc4cnccc34)C2)c1 [Compound 2.063, (R)-N-(3-((3-(isoquinolin-5-ylamino)pyrrolidin-1-yl)methyl)benzyl)acetamide] | 206 nM | 73.9 nM | – | – | –
32 | NCc1ccc(CN2CCC[C@H](Nc3ccc4[nH]ncc4c3)C2)cc1 [Compound 1.201, (S)-N-(1-(4-(aminomethyl)benzyl)piperidin-3-yl)-1H-indazol-5-amine] | 1590 nM | 230 nM | – | – | –
33 | FC(F)(F)c1cccc(CN2CC[C@@H](Nc3cccc4cnccc34)C2)c1 [Compound 2.049, (R)-N-(1-(3-(trifluoromethyl)benzyl)pyrrolidin-3-yl)isoquinolin-5-amlne] | 113 nM | 48 nM | – | – | –
34 | O=c1[nH]ccc2c(N[C@@H]3CCN(Cc4cccc(OCCO)c4)C3)cccc12 [Compound 2.092, (R)-5-(1-(3-(2-hydroxyethoxy)benzyl)pyrrolidin-3-ylamino)isoquinolin-1(2H)-one] | 1130 nM | 458 nM | – | – | –
35 | CN(C)S(=O)(=O)Nc1cccc(CN2CCC[C@H](Nc3ccc4[nH]ncc4c3)C2)c1 [Compound 1.261] | 307 nM | – | – | 307 nM | –
36 | COc1c(CN2CC[C@@H](Nc3cccc4cnccc34)C2)cccc1NS(=O)(=O)N(C)C [Compound 2.097] | 35.4 nM | – | – | 35.4 nM | –
37 | Cc1ccc(CN2CC[C@@H](Nc3cccc4cnccc34)C2)cc1NS(=O)(=O)N(C)C [Compound 2.077] | 33.7 nM | – | – | 33.7 nM | –
38 | Cc1c(CN2CCC[C@H](Nc3ccc4[nH]ncc4c3)C2)cccc1NS(=O)(=O)N(C)C [Compound 1.275] | 402 nM | – | – | 402 nM | –
39 | Clc1ccc(CN2CC[C@@H](Nc3ccc4[nH]ncc4c3)C2)cc1 [Compound 1.241, (R)-N-(1-(4-chlorobenzyl)pyrrolidin-3-yl)-1H-indazol-5-amine] | 65.1 nM | – | – | – | –
40 | COc1nccc2c(N[C@@H]3CCN(Cc4ccc(C)c(OCCO)c4)C3)cccc12 [Compound 2.094, (R)-2-(5-((3-(1-methoxyisoquinolin-5-ylamino)pyrrolidin-1-yl)methyl)-2-methylphenoxy)ethanol] | 16600 nM | – | – | – | –
